Tests used:
[1] = tested on: U2OS (human osteosarcoma); experiment: Matrigel cell invasion assay, U2OS; assay type: cell-based; parameters: key to Invasion Assay Inhibition U2OS: ++: 50-90%; +: < 50%; -: Not Active
Method: (§1) Heparanase inhibitors were then evaluated for their activity on the invasive potential of HT1080 (human fibrosarcoma), U87MG (human glioblastoma astrocytoma) and U2OS (human osteosarcoma) human cell lines, using the Matrigel cell invasion assay which allows to assess the cell invasion ability of malignant and normal cells.
(§2) Invasion assay was performed using BioCoat cell culture inserts (BioCoat 8.0µm PET Membrane 24 Well Permeable Supports, Corning). Filters were coated with 100 µl of 300 µg/ml Matrigel dissolved in coating buffer (0.01 M Tris pH 8.0, 0.7% NaCl) (Becton-Dickinson Sciences). DMEM (Dulbecco's Modified Eagle's Medium) containing 5% FBS was added to the lower chambers. Cells were pre-treated with heparanase inhibitors for 24 h, detached and added to the upper chambers in media containing the inhibitors. Cells were allowed to invade for 24 h at 37°C in a CO2 incubator and then unmigrated cells were removed from the upper chamber with a cotton swab. The invading cells were fixed, stained with 0.1% crystal violet for 10 min at room temperature, photographed and counted under inverted microscope.
(§3) Test compounds were analyzed at fixed concentration (2.5 µM) for several fields, in duplicates. Activity of test compounds was compared to the reference compound. Activity of most interesting compound was confirmed in a second cell invasion assay. Data were expressed as the percent invasion with respect to cell migration through uncoated insert membrane (see Table 3 below)
(§4) Table 3. […] In Invasion assay, data were expressed as the percent invasion (range) with respect to cell migration through uncoated insert membrane. In Adhesion assay, data were expressed as the percent of adhesion with respect to the control (100%). • Legend • ++: 50-90% • + : < 50% • - : Not Active

[2] = tested on: HT1080 (human fibrosarcoma); experiment: Matrigel cell invasion assay, HT1080; assay type: cell-based
Method: as §1, §2, §3, §4

heparanase = biological target: T1, heparanase (Homo sapiens, UniProt Q9Y251); experiment: AGA*IA assay: colorimetric fondaparinux cleavage assay for heparanase inhibition (WST-1); assay type: biochemical; details: 2.5 nM heparanase, 100 µM fondaparinux, pH 5.0, 3 h at 37°C; class symbols
T1 sequence (Q9Y251 158-543 limits assumed): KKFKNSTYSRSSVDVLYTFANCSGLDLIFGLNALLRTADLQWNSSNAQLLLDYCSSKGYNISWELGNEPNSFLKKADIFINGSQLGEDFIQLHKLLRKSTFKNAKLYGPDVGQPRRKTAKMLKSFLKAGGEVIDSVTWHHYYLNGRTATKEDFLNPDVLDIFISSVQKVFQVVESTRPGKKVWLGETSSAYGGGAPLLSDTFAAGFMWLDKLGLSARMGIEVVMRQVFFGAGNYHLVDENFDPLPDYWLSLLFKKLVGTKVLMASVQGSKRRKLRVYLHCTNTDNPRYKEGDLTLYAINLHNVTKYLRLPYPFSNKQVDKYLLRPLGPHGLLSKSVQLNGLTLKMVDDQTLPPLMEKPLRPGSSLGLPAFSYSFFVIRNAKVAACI
T1 sequence (Q9Y251 36-109 limits assumed): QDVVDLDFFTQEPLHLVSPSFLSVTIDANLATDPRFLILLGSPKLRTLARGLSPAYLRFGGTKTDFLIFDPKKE
Method: All compounds were tested in a simple, accurate and robust microplate assay based on the cleavage of the synthetic heparin fragment, the pentasaccharide Fondaparinux (AGA*IA). This assay was originally developed by Hammond and coworkers [Hammond E, Li CP, Ferro V. Development of a colorimetric assay for heparanase activity suitable for kinetic analysis and inhibitor screening. Anal. Biochem. 396(1), 112-116 (2010)], where Fondaparinux corresponds to the methyl glycoside of the antithrombin III (ATIII)-activating pentasaccharide sequence of heparin. Fondaparinux is cleaved by heparanase to generate a reducing disaccharide, which can be quantitatively measured via a colorimetric or a fluorescence assay, the last by the fluorescent sensor polymer-H [Schiemann S, Lühn S, Alban S. Development of both colorimetric and fluorescence heparinase activity assays using fondaparinux as substrate. Anal. Biochem. 427(1), 82-89 (2012)].
The assay measures the appearance of the disaccharide product of heparanase-catalyzed fondaparinux cleavage colorimetrically using the tetrazolium salt WST-1. Assay was essentially performed as described with minor modifications. Briefly, NUNC ELISA 96-well plates were pre-treated with a solution of 4% BSA (bovin serum albumin) in phosphate-buffered saline containing 0.05% Tween 20 (PBST), for 2 h at 37°C, then washed three times with PBST, dried by tapping on paper towel and stored at -20°C. Before use, once again, the plates were washed with PBST.
Assay was carried out with 100 µl/well of assay solution containing 40 mM sodium acetate buffer (pH 5.0), 100 µM fondaparinux, 2.5 nM heparanase and serial dilutions of test compounds (tested in triplicate). Plates were sealed with adhesive tape and incubated, in the dark, for 3 h at 37°C, followed by development with 1.69 mM of the tetrazolium salt WST-1 solution in 0.1 M NaOH, for 1 h at 60°C. Then, the absorbance at 560 nm was measured through a microplate reader (Victor 3, Perkin Elmer).
Finally, the measurements were corrected by subtracting both the reagent background and the inner absorbance value of test compound.

[3] = tested on: HT1080 (human fibrosarcoma); experiment: SRB Cell Cytotoxicity Assay, HT1080; assay type: cell-based; details: HT-1080, HT1080, 72h treatment, read-out: Concentration (µM) of test compounds at which the cell growth is inhibited by 50 %. HT1080
From the text: (§5) SRB Cell Cytotoxicity Assay is an assay based upon the quantitative staining of cellular proteins by sulforhodamine B (SRB). This assay can be used for high-throughput drug screening (Vichai & Kirkitara, Nature Protocol. 2006, 1, 112). Sulforhodamine B is an anionic aminoxanthene dye that forms an electrostatic complex with the basic amino acid residues of proteins under moderately acid conditions, which provides a sensitive linear response.
(§6) To assess a putative antiproliferative activity of the selected compounds, HT1080 (human fibrosarcoma), U87MG (human glioblastoma astrocytoma) and U2OS (human osteosarcoma) cell lines were treated for 72h, in triplicate, with increasing concentrations of heparanase inhibitors. Inhibition of cell proliferation was then measured by the classical colorimetric SRB Cell Cytotoxicity assay. Absorbance was measured by spectrophotometer at a wavelength of 510 nm and cell proliferation was determined as percent with respect to control cells (cells treated with the vehicle alone). EC50 values were then determined by GraphPad Prism.

[4] = tested on: U87MG (human glioblastoma astrocytoma); experiment: Matrigel cell invasion assay, U87MG; assay type: cell-based; parameters: key to Invasion Assay Inhibition U87MG: ++: 50-90%; +: < 50%; -: Not Active
Method: as §1, §2, §3, §4

[5] = tested on: U87MG (human glioblastoma astrocytoma); experiment: Cell adhesion assay on matrigel coated wells, U87MG; assay type: cell-based; details: percent of adhesion with respect to the control (100%)
Method: (§7) Cell surface, non-integrin molecules such as heparan sulfate proteoglycans (HSPGs) may be involved in the regulation of early adhesive stages of cell-ECM interactions. A cell adhesion assay has been employed to determine if the newly designed heparanase inhibitors were able to interfere with adhesion properties of cancer cells.
(§8) HT1080 (human fibrosarcoma) and U87MG (human glioblastoma astrocytoma) cells were treated for 18-20 h with test compounds in complete medium supplemented with 10% FCS. Then cells were collected, washed in complete medium, and added to matrigel coated wells in triplicate, at previously identified optimal seeding density, and incubated at 37 °C in complete medium for times ranging from 15 minutes to 4h, according to the cell line. After incubation, the wells were washed three times with serum-free medium and the remaining firmly attached cells were stained with crystal-violet 0.1%. Optical density was measured at 560 nm by Victor 3 (Perkin-Elmer) plate analyzer. Each experiment was repeated three times.
as §4

[6] = tested on: U87MG (human glioblastoma astrocytoma); experiment: SRB Cell Cytotoxicity Assay, U87MG; assay type: cell-based; details: U-87 MG, 72h treatment, read-out: Concentration (µM) of test compounds at which the cell growth is inhibited by 50 %. U87MG
From the text: as §5, §6

[7] = tested on: U2OS (human osteosarcoma); experiment: SRB Cell Cytotoxicity Assay, U2OS; assay type: cell-based; details: 72h treatment, read-out: Concentration (µM) of test compounds at which the cell growth is inhibited by 50 %. U2OS
From the text: as §5, §6

[8] = tested on: HT1080 (human fibrosarcoma); experiment: Cell adhesion assay on matrigel coated wells, HT1080; assay type: cell-based; details: percent of adhesion with respect to the control (100%)
Method: as §7, §8, §4

SMILES	inhibition at 2.5 µM ([1]; Homo sapiens, test compound at 2.5 µM, 24 h pre-treatment, 24 h invasion)	inhibition at 2.5 µM ([2]; HT-1080, HT1080, test compound at 2.5 µM, 24 h pre-treatment, 24 h invasion)	IC50 (heparanase)	EC50 [3]	inhibition at 2.5 µM ([4]; Homo sapiens, U-87 MG, test compound at 2.5 µM, 24 h pre-treatment, 24 h invasion)	Adhesion Assay (%) U87MG ([5]; test compound at 2.5 µM)	EC50 [6]	EC50 [7]	Adhesion Assay (%) HT1080 ([8]; HT1080, test compound at 2.5 µM)	Invasion Assay Inhibition U2OS ([1]; reference compound at 10 µM)	inhibition at 10 µM ([2]; HT-1080, HT1080, reference compound at 10 µM)	Invasion Assay Inhibition U87MG ([4]; reference compound at 10 µM)	Adhesion Assay (%) U87MG ([5]; reference compound at 10 µM)	Adhesion Assay (%) HT1080 ([8]; HT1080, reference compound at 10 µM)
C[C@H](NC(=O)Cc1ccc2oc(-c3ccc(NC(=O)Nc4ccc(-c5nc6cc(CC(=O)N[C@@H](C)C(=O)O)ccc6o5)cc4F)c(F)c3)nc2c1)C(=O)O [Compound 27, (2S,2'S)-2,2'-((2,2'-(((Carbonylbis(azanediyl))bis(3-fluoro-4,1-phenylene))bis(benzo[d]oxazole-2,5-diyl))bis(acetyl))bis(azanediyl))dipropionic acid]	< 50%	< 50%	0.05 to 0.49 µM	> 10 µM	50 to 90%	61.10%	> 10 µM	> 10 µM	90.94%					
Cc1ccc(C(=O)Nc2ccc(S(=O)(=O)O)c3cc(S(=O)(=O)O)cc(S(=O)(=O)O)c23)cc1NC(=O)c1cccc(NC(=O)Nc2cccc(C(=O)Nc3cc(C(=O)Nc4ccc(S(=O)(=O)O)c5cc(S(=O)(=O)O)cc(S(=O)(=O)O)c45)ccc3C)c2)c1 [Suramin, reference compound]				> 10 µM			> 10 µM	> 10 µM		-	< 50%	-	100%	72.98%
